Reference: ChEMBL document CHEMBL1201862, “PubChem BioAssay data set” (2004)
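Compound exposure: 48 hours, 5 concentrations, 96-well plates. GI50 = concentration required for 50% inhibition of growth.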 Active and inactive are the calls of the source. Rule as the data show it: active = GI50 up to about 1.1 µM and inactive = higher.

Key:
Assay in all cases: NCI anticancer screen, dose series, 48 h
K562 = tested on: K562
UACC-62 = tested on: UACC-62
NCI-H522 = tested on: NCI-H522
SK-MEL-2 = tested on: SK-MEL-2
NCI-H460 = tested on: NCI-H460
Hs-578T = tested on: Hs-578T
SK-MEL-5 = tested on: SK-MEL-5
RPMI-8226 = tested on: RPMI-8226
HOP-62 = tested on: HOP-62
TK-10 = tested on: TK-10
KM12 = tested on: KM12
786-0 = tested on: 786-0
DU-145 = tested on: DU-145
NCI-H226 = tested on: NCI-H226
HCT-116 = tested on: HCT-116
Malme-3M = tested on: Malme-3M
M14 = tested on: M14
EKVX = tested on: EKVX
HCT-15 = tested on: HCT-15
A498 = tested on: A498
LOX IMVI = tested on: LOX IMVI
IGROV-1 = tested on: IGROV-1
NCI/ADR-RES = tested on: NCI/ADR-RES
HOP-92 = tested on: HOP-92
PC-3 = tested on: PC-3
UACC-257 = tested on: UACC-257
U-251 = tested on: U-251
ACHN = tested on: ACHN
MDA-MB-231 = tested on: MDA-MB-231
T47D = tested on: T47D
CCRF-CEM = tested on: CCRF-CEM
NCI-H23 = tested on: NCI-H23
MOLT-4 = tested on: MOLT-4
SK-OV-3 = tested on: SK-OV-3
SNB-19 = tested on: SNB-19
SNB-75 = tested on: SNB-75
OVCAR-5 = tested on: OVCAR-5
HL-60 = tested on: HL-60
SF-295 = tested on: SF-295
SK-MEL-28 = tested on: SK-MEL-28
UO-31 = tested on: UO-31
OVCAR-3 = tested on: OVCAR-3
OVCAR-4 = tested on: OVCAR-4
RXF 393 = tested on: RXF 393
SW-620 = tested on: SW-620
A549 = tested on: A549
MDA-MB-435 = tested on: MDA-MB-435
COLO 205 = tested on: COLO 205
HT-29 = tested on: HT-29
OVCAR-8 = tested on: OVCAR-8
HCC 2998 = tested on: HCC 2998
SR = tested on: SR
SF-268 = tested on: SF-268
CAKI-1 = tested on: CAKI-1

COc1cc(OC)cc(Oc2nc3ccccc3nc2C(=O)O)c1
GI50 (K562): > 100 µM (inactive)
GI50 (UACC-62): > 100 µM (inactive)
GI50 (NCI-H522): > 100 µM (inactive)
GI50 (SK-MEL-2): > 100 µM (inactive)
GI50 (NCI-H460): > 100 µM (inactive)
GI50 (Hs-578T): > 100 µM (inactive)
GI50 (SK-MEL-5): > 100 µM (inactive)
GI50 (RPMI-8226): > 100 µM (inactive)
GI50 (HOP-62): > 100 µM (inactive)
GI50 (TK-10): > 100 µM (inactive)
GI50 (KM12): > 100 µM (inactive)
GI50 (786-0): > 100 µM (inactive)
GI50 (DU-145): > 100 µM (inactive)
GI50 (NCI-H226): > 100 µM (inactive)
GI50 (HCT-116): > 100 µM (inactive)
GI50 (Malme-3M): > 100 µM (inactive)
GI50 (M14): > 100 µM (inactive)
GI50 (EKVX): > 100 µM (inactive)
GI50 (HCT-15): > 100 µM
GI50 (A498): > 100 µM (inactive)
GI50 (LOX IMVI): > 100 µM (inactive)
GI50 (IGROV-1): > 100 µM (inactive)
GI50 (NCI/ADR-RES): > 100 µM (inactive)
GI50 (HOP-92): > 100 µM (inactive)
GI50 (PC-3): > 100 µM (inactive)
GI50 (UACC-257): > 100 µM (inactive)
GI50 (U-251): > 100 µM (inactive)
GI50 (ACHN): > 100 µM (inactive)
GI50 (MDA-MB-231): > 100 µM (inactive)
GI50 (T47D): > 100 µM (inactive)
GI50 (CCRF-CEM): > 100 µM (inactive)
GI50 (NCI-H23): > 100 µM (inactive)
GI50 (MOLT-4): > 100 µM (inactive)
GI50 (SK-OV-3): > 100 µM (inactive)
GI50 (SNB-19): > 100 µM (inactive)
GI50 (SNB-75): > 100 µM (inactive)
GI50 (OVCAR-5): > 100 µM (inactive)
GI50 (HL-60): > 100 µM (inactive)
GI50 (SF-295): > 100 µM (inactive)
GI50 (SK-MEL-28): > 100 µM (inactive)
GI50 (UO-31): > 100 µM (inactive)
GI50 (OVCAR-3): > 100 µM (inactive)
GI50 (OVCAR-4): 0.6 µM (active)
GI50 (RXF 393): > 100 µM (inactive)
GI50 (SW-620): > 100 µM (inactive)
GI50 (A549): > 100 µM (inactive)
GI50 (MDA-MB-435): > 100 µM (inactive)
GI50 (COLO 205): > 100 µM (inactive)
GI50 (HT-29): > 100 µM (inactive)
GI50 (OVCAR-8): > 100 µM (inactive)
GI50 (HCC 2998): > 100 µM (inactive)
GI50 (SR): > 100 µM (inactive)
GI50 (SF-268): > 100 µM (inactive)
GI50 (CAKI-1): > 100 µM (inactive)
